Results from patent US10703746B2, “Mutant IDH1 inhibitors useful for treating cancer” (THE UNITED STATES OF AMERICA, AS REPRESENTED BY THE …, priority 2014, dated 2020).

Columns and labels:
[1] = biological target: IDH1 R132H (Homo sapiens, UniProt O75874, R132H); experiment: IDH1 R132H enzymatic assay (NADPH depletion coupled to diaphorase/resazurin); assay type: biochemical; settings: IDH1 R132H enzymatic inhibition, IC50 class
[2] = biological target: IDH1 R132C (Homo sapiens, UniProt O75874, R132C); experiment: IDH1 R132C enzymatic assay (NADPH depletion coupled to diaphorase/resazurin); assay type: biochemical; settings: IDH1 R132C enzymatic inhibition, IC50 class
Method in brief: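 NADPH depletion, read via diaphorase/resazurin coupling, after adding substrate at 0.6 mM α-KG and 0.012 mM NADPH. Beforehand, 0.00032 mg/mL enzyme sat with compound 30 min at room temperature in pH 6.5 potassium phosphate buffer with MgCl2, glycerol and BSA.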

IDH1 R132H, sequence (O75874 whole entry R132H): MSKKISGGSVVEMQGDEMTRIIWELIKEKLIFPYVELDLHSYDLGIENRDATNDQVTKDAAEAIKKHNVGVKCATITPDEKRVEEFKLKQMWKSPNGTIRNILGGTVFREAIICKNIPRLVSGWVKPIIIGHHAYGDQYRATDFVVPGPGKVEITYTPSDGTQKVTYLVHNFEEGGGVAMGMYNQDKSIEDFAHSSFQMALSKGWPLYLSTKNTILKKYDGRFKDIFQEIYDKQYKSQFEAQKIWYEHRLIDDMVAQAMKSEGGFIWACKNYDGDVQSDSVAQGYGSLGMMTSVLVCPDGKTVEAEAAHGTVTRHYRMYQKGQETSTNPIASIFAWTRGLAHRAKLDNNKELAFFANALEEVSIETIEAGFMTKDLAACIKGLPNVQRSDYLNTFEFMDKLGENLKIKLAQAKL
IDH1 R132C, sequence (O75874 whole entry R132C): as the sequence (O75874 whole entry R132H) above, with H132C counted along it

IC50 [1] | IC50 [2] | SMILES
< 300 nM | < 300 nM | CCOc1ccc(C)cc1-n1c(CC(C)C)c(C(=O)N2CCNCC2)cc(-c2nc(-c3ccc(C(F)F)cc3)cs2)c1=O [Compound 685]
300 to 1000 nM | 300 to 1000 nM | CCOc1ccc(F)cc1-n1c(CC(C)C)c(C(=O)N2CCNCC2)cc(-c2nc(-c3ccc(C(F)F)cc3)cs2)c1=O [Compound 686]
300 to 1000 nM | 300 to 1000 nM | CCOc1ccc(Cl)cc1-n1c(CC(C)C)c(C(=O)N2CCNCC2)cc(-c2nc(-c3ccc(C(F)F)cc3)cs2)c1=O [Compound 687]
300 to 1000 nM | < 300 nM | CCOc1ccc(OCC)c(-n2c3c(cc(-c4nc(-c5ccc(Cl)cc5)cs4)c2=O)C(=O)CC(C)(C)C3)c1 [Compound 828]
